Data: patent US9957219B2, “Antidiabetic bicyclic compounds” (Merck Sharp & Dohme Corp., priority 2013, dated 2018)

Columns and labels:
Human GPR40 [1] = molecular target: T1, Human GPR40 (Homo sapiens, UniProt O14842); experiment: Inositol Phosphate Turnover (IP1) assay in HEK cells stably expressing human GPR40; type: cell-based; design: expressed in transfected cells; host or cells: HEK cells stably expressing the aequorin reporter
Method: (§1) Human and mouse GPR40 stable cell-lines were generated in CHO cells stably expressing NFAT BLA (Beta-lactamase). A human GPR40 stable cell-line was generated in HEK cells stably expressing the acquorin expressing reporter. The expression plasmids were transfected using lipofectamine (Life Technologies) following manufacturer's instructions. Stable cell-lines were generated following drug selection.
The assay was performed in 96-well format. HEK cells stably expressing human GPR40 were plated to be 60-80% confluent within 72 h. After 72 h, the plates were aspirated and the cells washed with inositol-free DMEM (ICN). The wash media was replaced with 150 μL of 3H-inositol labeling media (inositol-free media containing 0.4% human albumin or 0.4% mouse albumin, 1× pen/strep antibiotics, glutamine, 25 mM HEPES to which was added 3H-myo-inositol NEN #NET114A 1 mCi/mL, 25 Ci/mmol diluted 1:150 in loading media with a final specific radioactivity of 1 μCi/150 μL). Alternatively, the human and mouse albumin were added after the overnight labeling step before the addition of LiCl.
The assay was typically run the next day after 18 h labeling. On the day of the assay, 5 μL of 300 mM LiCl were added to all wells and incubated at 37 degrees for 20 min. 0.75 μL of 200× compounds were added and incubated with the cells for 60 min at 37 degrees. The media was then aspirated off and the assay terminated with the addition of 60 μL 10 mM formic acid. The cells were lysed for 60 min at room temperature. 15-30 μL of lysate was mixed with 70 μL/1 mg YSi SPA beads (Amersham) in clear bottom Isoplates. The plates were shaken for 2 h at room temperature. Beads were allowed to settle and the plates are counted in the Wallac Microbeta.

Human GPR40 [2] = molecular target: T1, Human GPR40; experiment: FLIPR assay, agonist-induced calcium mobilization in GPR40/CHO NFAT BLA cells; type: cell-based; design: expressed in transfected cells
Method: as §1
FLIPR (Fluorimetric Imaging Plate Reader, Molecular Devices) assays were performed to measure agonist-induced calcium mobilization of the stable clones. For the FLIPR assay, one day before assay, GPR40/CHO NFAT BLA cells were seeded into black-wall-clear-bottom 384-well plates (Costar) at 1.4×10e4 cells/20 μL medium/well. The cells were incubated with 20 μl/well of the assay buffer (HBSS, 0.1% BSA, 20 mM HEPES, 2.5 mM probenecid, pH 7.4) containing 8 μM fluo-4, AM, 0.08% pluronic acid at room temperature for 100 minutes. Fluorescence output was measured using FLIPR. Compounds were dissolved in DMSO and diluted to desired concentrations with assay buffer. 13.3 μL/well of compound solution was added.

T1 sequence (O14842 whole entry): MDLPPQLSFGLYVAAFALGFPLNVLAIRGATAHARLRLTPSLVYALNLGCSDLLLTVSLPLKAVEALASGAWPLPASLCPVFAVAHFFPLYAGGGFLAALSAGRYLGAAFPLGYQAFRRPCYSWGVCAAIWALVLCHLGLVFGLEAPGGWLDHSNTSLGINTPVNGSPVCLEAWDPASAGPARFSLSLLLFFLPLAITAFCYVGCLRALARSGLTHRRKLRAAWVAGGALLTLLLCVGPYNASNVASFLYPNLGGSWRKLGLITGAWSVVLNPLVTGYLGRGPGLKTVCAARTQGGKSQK

Row | SMILES | EC50 (Human GPR40 [1]) [nM] | EC50 (Human GPR40 [2]) [nM]
1 | COc1ccc(F)c(-c2cc3c(cc2F)[C@H](Oc2cccc([C@@H](CC(=O)O)C4CC4)c2)CC3)c1 [Example 39] | 151 | 5
2 | COc1ccc(F)c(-c2ccc3c(c2F)CC[C@H]3Oc2cccc([C@@H](CC(=O)O)C3CC3)c2)c1 [Example 34] | 107 | 4
3 | COc1ccc(F)c(-c2ccc3c(c2F)CC[C@H]3Oc2cccc([C@H](C3CC3)[C@H](C)C(=O)O)c2)c1 [Example 32] | 4.5 | 0.4
4 | COc1ccc(F)c(-c2cc3c(cn2)[C@H](Oc2cccc([C@H](C4CC4)[C@H](C)C(=O)O)c2)CC3)c1 [Example 41] | 15 | < 0.2
5 | C[C@H](C(=O)O)[C@H](c1cccc(O[C@@H]2CCc3cc(-c4cc(O)ccc4F)ccc32)c1)C1CC1 [Example 35] | 2.9 | 0.2
6 | COc1ccc(F)c(-c2ccc3c(c2-c2cccc4ccn(C)c24)CC[C@H]3Oc2cccc([C@H](C3CC3)[C@H](C)C(=O)O)c2)c1 [Example 37] | 145 | 1
7 | COc1ccc(F)c(-c2ccc3c(c2)CC[C@H]3Oc2cccc([C@H](C3CC3)[C@H](C)C(=O)O)c2F)c1 [Example 4] | 2.8 | 0.2
8 | COc1ccc(F)c(-c2ccc3c(c2C#N)CC[C@H]3Oc2cccc([C@@H](CC(=O)O)C3CC3)c2)c1 [Example 30] | 412 | 22
9 | COc1ccc(F)c(-c2ccc3c(n2)CC[C@H]3Oc2cccc([C@@H](CC(=O)O)C3CC3)c2)c1 [Example 38] | 895 | 17
10 | COc1ccc(F)c(-c2cnc3c(c2)CC[C@H]3Oc2cccc([C@H](C3CC3)[C@H](C)C(=O)O)c2)c1 [Example 40] | 91 | 2
11 | COc1ccc(F)c(-c2cc3c(cc2F)[C@H](Oc2cccc([C@@H](CC(=O)O)C4CC4)c2)CC3)c1 [Example 33] | 155 | 12
12 | COc1ccc(F)c(-c2ccc3c(c2)CC[C@H]3Oc2cccc([C@H](C3CC3)[C@@H](C)C(=O)O)c2F)c1 [Example 5] | 154 | 8
13 | COc1ccc(F)c(-c2cc(F)c3c(c2)CC[C@H]3Oc2cccc([C@@H](CC(=O)O)C3CC3)c2)c1 [Example 31] | 2160 | 36
14 | COc1ccc(F)c(-c2ccc3c(c2Cl)CC[C@H]3Oc2cccc([C@@H](CC(=O)O)C3CC3)c2)c1 [Example 36] | 357 | 7
15 | COc1ccc(F)c(-c2ccc3c(c2)CC[C@H]3Oc2cccc([C@@H](CC(=O)O)C3CC3)c2)c1 [Example 1] | 64 | 2
16 | COc1ccc(F)c(-c2ccc3c(c2)CC[C@H]3Oc2cccc([C@H](C3CC3)[C@H](C)C(=O)O)c2)c1 [Example 2] | 2.9 | 0.4
